# Source: US10168342B2, “Lipid probes and uses thereof” (THE SCRIPPS RESEARCH INSTITUTE, priority 2015, dated 2019)
# Assays:
# [1] = target: T1, NENF (Homo sapiens, UniProt Q9UMX5); assay: In vitro gel-based competition of AEA-DA probe labeling of NENF; format: binding; conditions: competitors 1-100 μM, NENF-transfected HEK293T lysates
# T1 construct: Full-length cDNAs encoding for the each protein of interest were subcloned into pcDNA3.1 myc-His A; Myc (myc-His of pcDNA3.1 myc-His A); expressed in transfected cells; host or cells: HEK293T (lysates)
# T1 sequence (Q9UMX5 32-172, species assumed): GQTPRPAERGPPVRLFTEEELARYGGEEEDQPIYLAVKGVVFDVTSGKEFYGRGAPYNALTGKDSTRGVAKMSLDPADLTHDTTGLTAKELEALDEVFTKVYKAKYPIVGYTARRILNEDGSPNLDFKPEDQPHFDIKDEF
# Method: Full-length cDNAs encoding for the each protein of interest were subcloned into pcDNA3.1 myc-His A (Invitrogen) or used directly for transfections if available in a eukaryotic expression vector. HEK293T cells were grown to ˜70% confluence under standard growth conditions before adding the appropriate cDNA [control cells (“mock”) received an equal amount of empty pcDNA3.1 myc-His A vector] and FuGENE 6 or X-tremeGENE HP (Roche) transfection reagent according to the manufacturer's instructions. Cells were incubated for 36-48 hours before labeling in situ or harvesting for in vitro experiments.
# Cell lysates (1.0 mg/mL), the indicated lipid probe (2.5 or 5 μM) and, for recombinant NUCB1 competition experiments, purified hNUCB1 (250 nM) and CaCl2 (100 μM) were mixed on ice. […] The samples were then irradiated with UV light and subjected to previously described click chemistry conditions. As before, each reaction was quenched with 4×SDS loading buffer (17 μL), and proteins were resolved using SDS-PAGE (10% acrylamide gel) and analyzed by in-gel fluorescent scanning on a Hitachi FMBIO-II flatbed fluorescence scanner. NUCB1 competition was quantitatively assessed by measuring the fluorescent intensity of the corresponding gel band using ImageJ 1.48v and normalizing this value by a non-competed gel band to control for loading differences.
# Metabolite data are shown as mean±SEM (n=3-5/group). Differences between two groups were determined using Student's t test (unpaired, two-tailed) and significance was denoted for P values<0.05.
# [2] = target: T2, human NUCB1 (Homo sapiens, UniProt Q02818); assay: FluoPol assay / high throughput screen with Fl-AEA and recombinant NUCB1; format: binding; conditions: competitor lipids, recombinant NUCB1
# T2 construct: made in house; host or cells: Escherichia coli BL21(DE3)
# T2 sequence (Q02818 27-461): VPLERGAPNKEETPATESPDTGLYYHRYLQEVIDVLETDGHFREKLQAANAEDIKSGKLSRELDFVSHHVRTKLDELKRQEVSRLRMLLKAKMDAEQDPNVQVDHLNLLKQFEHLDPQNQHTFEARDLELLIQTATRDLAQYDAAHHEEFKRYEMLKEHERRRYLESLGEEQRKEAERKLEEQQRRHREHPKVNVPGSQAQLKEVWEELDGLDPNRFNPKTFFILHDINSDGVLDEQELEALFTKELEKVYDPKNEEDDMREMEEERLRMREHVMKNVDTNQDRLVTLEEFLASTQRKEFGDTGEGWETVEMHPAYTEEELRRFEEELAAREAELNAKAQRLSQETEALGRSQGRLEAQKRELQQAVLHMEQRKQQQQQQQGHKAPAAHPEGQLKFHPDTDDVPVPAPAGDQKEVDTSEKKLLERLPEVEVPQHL
# Method: FluoPol conditions were optimized by screening various concentrations of Fl-AEA, hNUCB1, CaCl2 and Pluronic F-127 against positive and negative controls. Arachidonic acid (20 μM final) was used as a positive control, and DMSO as a negative. Additionally, protein-free controls were used to normalize for background signal. […] The Z′-factor for these conditions was determined to be 0.54, indicating a high signal to noise assay.
# A 10 μL solution of hNUCB1 (1 μM), Fl-AEA (0.5 μM), CaCl2 (20 μM), and Pluronic F-127 (0.01%) was added to a Greiner 384-well plate. Additionally, in some wells protein was omitted to serve as a blank control for background signal. To the protein containing wells 16,000 compounds (50 nL in DMSO, 2 mM) from the Maybridge Hitfinder library were added by a pin-tool robot. Additionally, on each plate to some wells arachidonic acid (20 μM final) or DMSO were added as positive and negative controls to allow normalization between plates. The plates were allowed to incubate for 5 minutes at room temperature, then fluorescence polarization was measured by measuring fluorescence intensity through polarized 595 nm filters. Hits were selected based on maximal probe competition.
# [3] = target: T3, lipid-binding proteins in A549 cells (Homo sapiens, UniProt P67812); assay: SILAC MS mapping of UV-dependent lipid probe targets in A549 cells; format: cell-based; conditions: AEA-DA probe vs NoUV
# T3 construct: endogenous in cells; host or cells: A549 (PMA-stimulated for the PTGS2 experiments)
# T3 sequence (P67812 whole entry): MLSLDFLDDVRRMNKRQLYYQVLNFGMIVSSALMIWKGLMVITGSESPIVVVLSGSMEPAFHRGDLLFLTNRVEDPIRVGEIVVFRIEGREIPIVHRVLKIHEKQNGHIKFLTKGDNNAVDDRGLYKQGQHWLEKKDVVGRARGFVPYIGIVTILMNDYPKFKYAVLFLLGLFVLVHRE
# [4] = target: T4, lipid-binding proteins in A549 cells (Homo sapiens, UniProt P21796); assay: as above; format: cell-based; conditions: AEA-DA probe vs NoUV
# T4 construct: endogenous in cells; host or cells: A549 (PMA-stimulated for the PTGS2 experiments)
# T4 sequence (P21796 whole entry): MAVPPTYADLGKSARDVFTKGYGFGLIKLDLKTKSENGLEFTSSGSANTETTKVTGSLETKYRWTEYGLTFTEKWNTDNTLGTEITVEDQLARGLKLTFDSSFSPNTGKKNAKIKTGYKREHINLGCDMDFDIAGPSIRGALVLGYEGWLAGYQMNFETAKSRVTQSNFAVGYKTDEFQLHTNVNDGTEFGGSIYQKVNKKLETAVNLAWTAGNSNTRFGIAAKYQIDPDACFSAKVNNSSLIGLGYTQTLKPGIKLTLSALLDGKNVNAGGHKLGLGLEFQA
# [5] = target: T5, lipid-binding proteins in A549 cells (Homo sapiens, UniProt P45880); assay: as above; format: cell-based; conditions: AEA-DA probe vs NoUV
# T5 construct: endogenous in cells; host or cells: A549 (PMA-stimulated for the PTGS2 experiments)
# T5 sequence (P45880 whole entry): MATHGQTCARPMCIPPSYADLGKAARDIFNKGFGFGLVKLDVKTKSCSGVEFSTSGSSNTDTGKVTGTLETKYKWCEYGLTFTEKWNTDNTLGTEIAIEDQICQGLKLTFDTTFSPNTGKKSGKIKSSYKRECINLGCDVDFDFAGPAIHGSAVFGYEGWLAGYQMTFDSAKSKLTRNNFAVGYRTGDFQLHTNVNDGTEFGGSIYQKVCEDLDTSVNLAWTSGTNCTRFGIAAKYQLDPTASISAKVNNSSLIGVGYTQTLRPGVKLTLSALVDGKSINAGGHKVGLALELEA
# [6] = target: T6, lipid-binding proteins in A549 cells (Homo sapiens, UniProt O15173); assay: as above; format: cell-based; conditions: AEA-DA probe vs NoUV
# T6 construct: endogenous in cells; host or cells: A549 (PMA-stimulated for the PTGS2 experiments)
# T6 sequence (O15173 whole entry): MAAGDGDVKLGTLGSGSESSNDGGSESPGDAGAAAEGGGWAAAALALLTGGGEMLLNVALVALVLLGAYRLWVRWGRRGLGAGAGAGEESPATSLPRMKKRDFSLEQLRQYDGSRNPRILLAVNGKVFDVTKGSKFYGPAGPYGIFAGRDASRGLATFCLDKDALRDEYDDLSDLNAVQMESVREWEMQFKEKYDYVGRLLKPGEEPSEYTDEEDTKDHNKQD
# [7] = target: T7, lipid-binding proteins in A549 cells (Homo sapiens, UniProt Q9NS69); assay: as above; format: cell-based; conditions: AEA-DA probe vs NoUV
# T7 construct: endogenous in cells; host or cells: A549 (PMA-stimulated for the PTGS2 experiments)
# T7 sequence (Q9NS69 whole entry): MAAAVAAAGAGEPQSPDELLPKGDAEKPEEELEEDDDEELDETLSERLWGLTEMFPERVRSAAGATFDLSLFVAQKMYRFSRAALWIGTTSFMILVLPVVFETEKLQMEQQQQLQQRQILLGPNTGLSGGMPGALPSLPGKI
# [8] = target: T8, lipid-binding proteins in A549 cells (Homo sapiens, UniProt Q86XL3); assay: as above; format: cell-based; conditions: AEA-DA probe vs NoUV
# T8 construct: endogenous in cells; host or cells: A549 (PMA-stimulated for the PTGS2 experiments)
# T8 sequence (Q86XL3 whole entry): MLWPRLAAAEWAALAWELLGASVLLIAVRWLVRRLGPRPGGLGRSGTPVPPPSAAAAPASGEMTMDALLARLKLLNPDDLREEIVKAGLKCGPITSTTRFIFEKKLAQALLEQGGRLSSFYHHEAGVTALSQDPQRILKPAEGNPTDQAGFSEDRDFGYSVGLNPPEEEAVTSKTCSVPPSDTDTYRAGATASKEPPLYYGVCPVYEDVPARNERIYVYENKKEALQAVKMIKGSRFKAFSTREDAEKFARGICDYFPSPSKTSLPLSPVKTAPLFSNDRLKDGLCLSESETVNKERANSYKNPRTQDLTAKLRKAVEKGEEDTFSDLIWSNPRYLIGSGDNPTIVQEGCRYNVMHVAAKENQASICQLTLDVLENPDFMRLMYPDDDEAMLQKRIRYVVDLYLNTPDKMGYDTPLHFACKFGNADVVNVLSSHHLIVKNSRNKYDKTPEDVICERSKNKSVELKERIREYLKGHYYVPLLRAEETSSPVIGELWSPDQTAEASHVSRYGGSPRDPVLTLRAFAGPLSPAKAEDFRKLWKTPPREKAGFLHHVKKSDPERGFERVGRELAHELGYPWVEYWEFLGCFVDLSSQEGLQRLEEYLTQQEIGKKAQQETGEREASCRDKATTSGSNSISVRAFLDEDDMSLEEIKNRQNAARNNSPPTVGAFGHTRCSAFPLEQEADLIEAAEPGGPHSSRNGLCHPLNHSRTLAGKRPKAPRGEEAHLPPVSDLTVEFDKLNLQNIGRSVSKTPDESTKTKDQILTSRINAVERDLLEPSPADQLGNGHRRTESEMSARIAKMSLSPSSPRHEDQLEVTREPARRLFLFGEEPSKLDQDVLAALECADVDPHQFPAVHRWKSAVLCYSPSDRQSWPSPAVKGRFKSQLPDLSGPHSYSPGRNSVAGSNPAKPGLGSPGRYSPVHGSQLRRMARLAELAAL
# [9] = target: T9, lipid-binding proteins in A549 cells (Homo sapiens, UniProt Q53GQ0); assay: as above; format: cell-based; conditions: AEA-DA probe vs NoUV
# T9 construct: endogenous in cells; host or cells: A549 (PMA-stimulated for the PTGS2 experiments)
# T9 sequence (Q53GQ0 whole entry): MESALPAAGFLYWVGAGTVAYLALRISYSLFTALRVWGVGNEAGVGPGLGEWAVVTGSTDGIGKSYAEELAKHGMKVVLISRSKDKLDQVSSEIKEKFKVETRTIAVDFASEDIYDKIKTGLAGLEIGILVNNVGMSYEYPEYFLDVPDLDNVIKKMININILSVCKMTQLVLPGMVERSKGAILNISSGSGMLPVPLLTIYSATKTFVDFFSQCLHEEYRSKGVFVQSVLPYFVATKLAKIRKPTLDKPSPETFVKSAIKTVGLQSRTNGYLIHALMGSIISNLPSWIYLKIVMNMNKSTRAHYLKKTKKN
# [10] = target: T10, lipid-binding proteins in A549 cells (Homo sapiens, UniProt O95470); assay: as above; format: cell-based; conditions: AEA-DA probe vs NoUV
# T10 construct: endogenous in cells; host or cells: A549 (PMA-stimulated for the PTGS2 experiments)
# [11] = target: T11, lipid-binding proteins in A549 cells (Homo sapiens, UniProt P07602); assay: as above; format: cell-based; conditions: AEA-DA probe vs NoUV
# T11 construct: endogenous in cells; host or cells: A549 (PMA-stimulated for the PTGS2 experiments)
# T11 sequence (P07602 60-524): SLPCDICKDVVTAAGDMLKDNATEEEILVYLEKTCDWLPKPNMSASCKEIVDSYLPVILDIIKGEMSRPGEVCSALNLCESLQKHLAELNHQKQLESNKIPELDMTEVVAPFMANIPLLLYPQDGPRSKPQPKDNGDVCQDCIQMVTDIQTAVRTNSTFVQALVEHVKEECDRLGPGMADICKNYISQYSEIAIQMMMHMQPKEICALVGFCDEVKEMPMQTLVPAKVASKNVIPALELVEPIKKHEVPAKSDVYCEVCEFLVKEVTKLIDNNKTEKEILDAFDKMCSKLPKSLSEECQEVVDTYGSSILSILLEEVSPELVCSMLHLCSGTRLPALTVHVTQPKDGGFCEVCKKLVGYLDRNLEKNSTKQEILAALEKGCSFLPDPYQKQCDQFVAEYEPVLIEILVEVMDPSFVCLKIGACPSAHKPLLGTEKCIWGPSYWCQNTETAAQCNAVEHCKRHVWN
# [12] = target: T12, lipid-binding proteins in A549 cells (Homo sapiens, UniProt P30519); assay: as above; format: cell-based; conditions: AEA-DA probe vs NoUV
# T12 construct: endogenous in cells; host or cells: A549 (PMA-stimulated for the PTGS2 experiments)
# T12 sequence (P30519 whole entry): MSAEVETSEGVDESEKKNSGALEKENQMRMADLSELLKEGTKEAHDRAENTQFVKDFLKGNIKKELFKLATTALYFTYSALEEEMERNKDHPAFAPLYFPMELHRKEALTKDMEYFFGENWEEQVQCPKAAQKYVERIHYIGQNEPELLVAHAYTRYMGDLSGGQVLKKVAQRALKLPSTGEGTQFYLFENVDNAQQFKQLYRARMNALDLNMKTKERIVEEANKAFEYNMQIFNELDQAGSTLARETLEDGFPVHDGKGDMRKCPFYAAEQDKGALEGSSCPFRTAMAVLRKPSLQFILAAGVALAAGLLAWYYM
# [13] = target: T13, lipid-binding proteins in A549 cells (Homo sapiens, UniProt Q9H4I3); assay: as above; format: cell-based; conditions: AEA-DA probe vs NoUV
# T13 construct: endogenous in cells; host or cells: A549 (PMA-stimulated for the PTGS2 experiments)
# T13 sequence (Q9H4I3 whole entry): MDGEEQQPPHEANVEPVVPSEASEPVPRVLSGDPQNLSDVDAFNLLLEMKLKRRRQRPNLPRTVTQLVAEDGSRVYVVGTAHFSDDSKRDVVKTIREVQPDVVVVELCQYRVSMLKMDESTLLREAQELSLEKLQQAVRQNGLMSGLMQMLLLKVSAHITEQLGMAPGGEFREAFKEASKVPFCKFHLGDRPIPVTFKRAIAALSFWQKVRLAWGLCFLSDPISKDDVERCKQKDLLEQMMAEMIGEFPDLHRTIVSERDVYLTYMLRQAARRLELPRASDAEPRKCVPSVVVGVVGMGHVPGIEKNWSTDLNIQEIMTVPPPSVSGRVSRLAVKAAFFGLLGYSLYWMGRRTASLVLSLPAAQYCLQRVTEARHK
# [14] = target: T14, lipid-binding proteins in A549 cells (Homo sapiens, UniProt Q14534); assay: as above; format: cell-based; conditions: AEA-DA probe vs NoUV
# T14 construct: endogenous in cells; host or cells: A549 (PMA-stimulated for the PTGS2 experiments)
# T14 sequence (Q14534 whole entry): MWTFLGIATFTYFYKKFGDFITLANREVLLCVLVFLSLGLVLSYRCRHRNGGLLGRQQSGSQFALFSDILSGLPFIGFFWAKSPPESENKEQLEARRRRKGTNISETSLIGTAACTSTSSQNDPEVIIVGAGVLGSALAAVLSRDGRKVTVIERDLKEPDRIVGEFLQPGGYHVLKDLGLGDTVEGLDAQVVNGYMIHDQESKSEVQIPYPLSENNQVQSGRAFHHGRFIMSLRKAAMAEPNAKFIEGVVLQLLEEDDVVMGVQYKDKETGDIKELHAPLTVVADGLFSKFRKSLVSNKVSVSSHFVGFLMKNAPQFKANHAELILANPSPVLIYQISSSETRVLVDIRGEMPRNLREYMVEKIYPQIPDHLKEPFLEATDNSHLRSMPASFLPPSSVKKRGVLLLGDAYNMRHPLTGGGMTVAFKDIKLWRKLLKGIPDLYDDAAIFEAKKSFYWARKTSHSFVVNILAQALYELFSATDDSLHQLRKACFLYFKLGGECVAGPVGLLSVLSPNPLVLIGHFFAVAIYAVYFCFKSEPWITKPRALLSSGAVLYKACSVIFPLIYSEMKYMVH
# [15] = target: T15, lipid-binding proteins in A549 cells (Homo sapiens, UniProt Q9HAW7); assay: as above; format: cell-based; conditions: AEA-DA probe vs NoUV
# T15 construct: endogenous in cells; host or cells: A549 (PMA-stimulated for the PTGS2 experiments)
# T15 sequence (Q9HAW7 26-530): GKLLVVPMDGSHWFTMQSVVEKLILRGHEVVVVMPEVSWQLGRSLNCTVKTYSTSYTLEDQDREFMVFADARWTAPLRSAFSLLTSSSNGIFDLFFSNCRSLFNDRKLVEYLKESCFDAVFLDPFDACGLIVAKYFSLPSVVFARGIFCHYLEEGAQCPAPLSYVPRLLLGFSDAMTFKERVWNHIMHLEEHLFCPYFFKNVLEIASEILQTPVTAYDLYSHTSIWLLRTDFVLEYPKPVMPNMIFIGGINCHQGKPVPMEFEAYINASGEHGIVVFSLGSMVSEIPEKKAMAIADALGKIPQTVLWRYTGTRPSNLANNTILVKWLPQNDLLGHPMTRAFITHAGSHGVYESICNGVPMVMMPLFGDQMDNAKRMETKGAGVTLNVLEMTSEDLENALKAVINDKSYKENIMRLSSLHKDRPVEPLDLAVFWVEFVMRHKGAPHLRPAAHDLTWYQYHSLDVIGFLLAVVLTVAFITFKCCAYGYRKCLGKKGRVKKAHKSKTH
Structure (SMILES),competition of AEA-DA probe labeling of recombinant NENF [1],suppression of the NUCB1-FluoPol signal (blockade of Fl-AEA binding) [2],"SILAC ratio, SEC11A (P67812) [3]","SILAC ratio, VDAC1 (P21796) [4]","SILAC ratio, VDAC2 (P45880) [5]","SILAC ratio, PGRMC2 (Q80UU9) [6]","SILAC ratio, TOMM22 (Q9CPQ3) [7]","SILAC ratio, ANKLE2 (Q86XL3) [8]","SILAC ratio, HSD17B12 (Q53GQ0) [9]","SILAC ratio, SGPL1 (O95470) [10]","SILAC ratio, PSAP (P07602) [11]","SILAC ratio, HMOX2 (P30519) [12]","SILAC ratio, TRABD (Q99JY4) [13]","SILAC ratio, SQLE (Q14534) [14]","SILAC ratio, UGT1A7 (Q9HAW7) [15]"
"CCCCC/C=C\C/C=C\C/C=C\C/C=C\CCCC(=O)NCCO [AEA, anandamide, reference compound]",competitively blocked,Concentration-dependent suppression,,,,,,,,,,,,,
"C#CCCCC1(CC/C=C\C/C=C\C/C=C\CCCC(=O)NCCO)N=N1 [AEA-DA, (5Z,8Z,11Z)-N-(2-hydroxyethyl)-14-(3-(pent-4-yn-1-yl)-3H-diazirin-3-yl)tetradeca-5,8,11-trienamide]",,,14.0,20.0,20.0,20.0,20.0,20.0,20.0,20.0,20.0,20.0,20.0,20.0,20.0
